Where two headings read alike, the source gives them in different places.
Experiments:
[1] = system: ChK1 phosphorylation (pChK1 S296) in HT-29 colon cancer cells; experiment: Western blot analysis of ChK1 phosphorylation in HT-29 cells with SN-38; format: cell-based, Human; details: HT-29 cells pre-incubated with Chk1 inhibitor 0.5 hours, then SN-38 (200 nM) 16 hours
MDA-MB-231 = experiment: Cancer cell growth inhibition assay (CellTiter-Glo), MDA-MB-231; format: cell-based, Human; details: 72 hours, cellular ATP content, read-out: MDA-MB-231 anti cell proliferation activity (grade)
Experimental: (§1) Human cancer cell lines were purchased from American Type Culture Collection (Manassas, Va.). The trypsinized cells were diluted to required volume at densities of 44,000 cells/ml. 90 ul cell slurry was dispensed per well in 96-well flat-bottomed plates with the recommended culture medium. The cells were incubated for 24 hours at 37° C. in 5% CO2 under humidified condition. The cells were then incubated with compounds at various concentrations for 72 hours in culture medium supplemented with 0.5% (v/v) FBS. Growth inhibition was assessed by assay of cellular ATP content using CellTiter-Glo reagent to each well. Luminesce was read on Envision. The inhibition rate (%)=(Max signal compound signal)/(Max signal Min signal)×100.

[2] = system: HT-29 colon cancer xenograft; format: in vivo
Experimental: (§2) Female Balb/c nude mice at 7-8 weeks of age (Body weights between 17-18g) were purchased from Hunan SJA Laboratory Animal Co., Ltd. HT-29 cells were cultured in DMEM culture medium containing 10% fetal bovine serum and LoVo cells were cultured in RPMI 1640 culture medium containing 10% fetal bovine serum. The cells were harvested and washed with serum free culture medium. Finally, the cells were suspended at a cell density of […] in serum free culture medium for implantation. 5 million cells per animal suspended in 0.1 ml serum free culture medium and 1.1 matrigel were injected into the right flank of the animals after a one, week acclimation period. When average tumor volume reached acceptable tumor size (100-200 mm^3) and shape, the animals were randomly assigned into treatment groups.
HT-29 colon cancer cells were implanted to establish the xenograft model in Balb/c nude mice. Compound 3 and LY2606368 were dissolved in 30% SEB-β-CD (Zhiyuan Bio-technology) with 1 molar equivalents of HCl. GDC-575 was suspended in 0.5% methyl cellulose/0.1% Tween 80 in water. […]. The animals well tolerated each treatment in the HT-29 colon cancer in nude mice model.

Chk2 = biological target: T1, Chk2 (Homo sapiens, UniProt O96017); experiment: biochemical; details: ADP-Glo; read-out: Chk2 in vitro enzyme activity (grade)
T1 construct: purchased Carna 02-162
T1 sequence (O96017 whole entry): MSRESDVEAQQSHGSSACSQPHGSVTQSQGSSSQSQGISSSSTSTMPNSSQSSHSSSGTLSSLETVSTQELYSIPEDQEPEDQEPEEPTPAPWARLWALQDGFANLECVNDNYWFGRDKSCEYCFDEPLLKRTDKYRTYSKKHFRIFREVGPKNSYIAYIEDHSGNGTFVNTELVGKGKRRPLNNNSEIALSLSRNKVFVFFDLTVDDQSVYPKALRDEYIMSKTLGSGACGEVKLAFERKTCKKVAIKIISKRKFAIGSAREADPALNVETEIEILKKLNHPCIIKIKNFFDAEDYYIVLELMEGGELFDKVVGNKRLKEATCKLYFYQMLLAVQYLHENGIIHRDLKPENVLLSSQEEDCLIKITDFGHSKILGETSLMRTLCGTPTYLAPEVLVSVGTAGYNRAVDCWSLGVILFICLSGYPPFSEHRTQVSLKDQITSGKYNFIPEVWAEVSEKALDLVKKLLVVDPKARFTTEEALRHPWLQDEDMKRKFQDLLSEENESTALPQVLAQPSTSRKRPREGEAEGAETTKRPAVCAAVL

Chk1 = biological target: T2, Chk1 (Homo sapiens, UniProt O14757); experiment: biochemical; details: ADP-Glo; read-out: Chk1 in vitro enzyme activity (grade)
T2 construct: purchased BPS 40039
T2 sequence (O14757 1-476): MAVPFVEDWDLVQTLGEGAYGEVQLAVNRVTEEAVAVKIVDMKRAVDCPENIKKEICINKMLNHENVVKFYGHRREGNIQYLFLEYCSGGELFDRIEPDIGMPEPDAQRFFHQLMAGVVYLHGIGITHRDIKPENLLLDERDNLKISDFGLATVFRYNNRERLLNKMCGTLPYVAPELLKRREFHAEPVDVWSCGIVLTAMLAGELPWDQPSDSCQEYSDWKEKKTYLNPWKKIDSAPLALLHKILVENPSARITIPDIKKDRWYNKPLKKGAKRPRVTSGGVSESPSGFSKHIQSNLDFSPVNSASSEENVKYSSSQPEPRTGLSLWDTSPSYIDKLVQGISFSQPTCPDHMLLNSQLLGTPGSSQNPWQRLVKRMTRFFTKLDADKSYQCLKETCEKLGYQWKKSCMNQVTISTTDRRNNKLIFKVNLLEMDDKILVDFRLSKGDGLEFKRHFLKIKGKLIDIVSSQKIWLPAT

HT-29 = experiment: Cancer cell growth inhibition assay (CellTiter-Glo), HT-29; format: cell-based, Human; details: 72 hours, cellular ATP content, read-out: HT-29 anti cell proliferation activity (grade)
Experimental: as §1

[3] = Human liver S9 metabolic stability; format: in vitro ADME; details: for Percentage Remaining %: 1 μM, 37° C.; for half-life at 1 μM: human liver S9, 1 μM
Experimental: Compounds (1 μM) were incubated with human liver S9 (from BD Gentest) at final liver microsomal protein concentration of 0.5 mg/mL for 0, 5, 15, 30, 45 min at 37° C. The remaining compounds in the reaction were measured by LC-MS/MS. The half-life (T½) 0.693/K (K is the rate constant from a plot of ln [concentration] vs. incubation time).

[4] = Pharmacokinetics study in rats, intravenous; format: in vivo, SD rats; details: rat; for AUC(0-inf) / AUC(0-t) / clearance / MRT / half-life / Vd: male, SD, plasma; for AUC(0-inf): read-out: AUC0-inf; for AUC(0-t): read-out: AUC0-t; for clearance: read-out: CL (converted); for MRT: read-out: MRT; for half-life: read-out: t½ (converted)
Experimental: Compounds were formulated in 30% SEB-β-CD (Zhiyuan Bio-technology) with 1 molar equivalents of HCl (pH adjusted to 3-5). Male SD rats (280-350 g) were purchased from Medical Laboratory Animal Center of Guangdong. Three rats were used for each PK study. […] At various time points after compound administration, approximately 0.2˜0.3 mL of blood was collected by cutting the end of tail into tubes containing K2-EDTA. The plasma was separated via centrifugation and stored at −80° C. A PE Sciex API-3000 LC-MS/MS system (Applied Biosystems, Inc.) was used to analyze compound concentrations in plasma.
PK studies of ChK1 inhibitors were conducted in rats after intravenous administration at 10 mg/kg. […]. […]

HT-29 tumor xenograft = experiment: HT-29 xenograft model, alone or in combination with CPT-11; format: in vivo, Balb/c nude mice; details: for % T/C value: 15 mg/kg, IV
Experimental: as §2
In HT-29 tumor xenograft model, the animals were treated with a single compound, a ChK1 inhibitor or CPT-11, or a combination with CPT11. […] The animals well tolerated each treatment in the HT-29 colon cancer in nude mice model.

[5] = system: LoVo colon cancer xenograft; experiment: LoVo colon xenograft model; format: in vivo, Balb/c nude mice; details: IV, twice a week
Experimental: as §2
Lovo colon cancer cells were implanted to establish the xenograft model in Balb/c nude mice. Compound 3 and LY2606368 were dissolved in 30% SEB-β-CD (Zhiyuan Bio-technology) with 1 molar equivalents of HCl. […]

Question: With N[C@@H]1CCCN(c2c(Br)cnc3[nH]cc(NC(=O)C4CC4)c23)C1 [GDC-0575, reference compound] as the compound, how does the “inhibition of Chk1 phosphorylation (FIG. 1)” value [1] read?
Answer: less potent than these compounds

Question: And the IC50 (MDA-MB-231)?
Answer: 100 to 500 nM

Question: What about the T/C value ([2]; 25 mg/kg, po, 3 times/week) of the same compound?
Answer: 50%

Question: And the “Tumor volume (X ± SD)” value ([2]; 25 mg/kg, po, 3 times/week)?
Answer: 515 ± 158 mm^3

Question: What about the “Tumor weight (X ± SD)” value ([2]; 25 mg/kg, po, 3 times/week) of the same compound?
Answer: 349 ± 94 mg

Question: What about the IC50 (Chk2) of the same compound?
Answer: 50 to 100 nM

Question: What about the IC50 (Chk1) of the same compound?
Answer: 1 to 10 nM

Question: And the IC50 (HT-29)?
Answer: 100 to 500 nM

Question: Which results are given for COc1cc(Cl)cc(OCCCN)c1-c1cc(Nc2cnc(C#N)cn2)n[nH]1 [Compound 4, 5-(5-(2-(3-Aminopropoxy)-4-chloro-6-methoxyphenyl)-1H-pyrazol-3-ylamino)pyrazine-2-carbonitrile]?
Answer: Percentage Remaining % ([3]; 0 min): 100.00%; Percentage Remaining % ([3]; 5 min): 97.57%; Percentage Remaining % ([3]; 15 min): 94.83%; Percentage Remaining % ([3]; 30 min): 88.45%; Percentage Remaining % ([3]; 45 min): 82.67%; metabolic stability compared with LY2606368 ([3]; human liver S9): more metabolic stable than LY2606368; half-life at 1 μM [3]: 103 h; IC50 (MDA-MB-231; Homo sapiens, MDA-MB-231): 10 to 50 nM; melting point: 198 to 203 °C; IC50 (Chk2): 50 to 100 nM; IC50 (Chk1): ≤ 1 nM; IC50 (HT-29; Homo sapiens, HT-29): 10 to 50 nM; AUC(0-inf) ([4]; IV, 10 mg/kg): 2400 ng·h/mL; AUC(0-t) ([4]; IV, 10 mg/kg): 2390 ng·h/mL; clearance ([4]; IV, 10 mg/kg): 78.3 mL/min/kg; MRT ([4]; IV, 10 mg/kg): 3.1 h; half-life ([4]; IV, 10 mg/kg): 3.3 h; Vd ([4]; iv, 10 mg/kg, IV, 10 mg/kg, read-out: Vd): 22.1 L/kg; Vd ([4]; iv, 10 mg/kg, IV, 10 mg/kg, read-out: Vss): 14.3 L/kg; half-life and exposure compared with LY2606368 ([4]; IV, 10 mg/kg (LY2606368 5 mg/kg)): longer half-life and higher exposure than LY2606368

Question: Which results are given for COc1cccc(OCCCN)c1-c1cc(Nc2cnc(C#N)cn2)n[nH]1 [LY-2606368, reference compound]?
Answer: % T/C value (HT-29 tumor xenograft; twice a week plus CPT-11 (50 mg/kg, IV, once per week)): 0%; % T/C value (HT-29 tumor xenograft; alone, twice a week): 61%; effect on anti-tumor growth activity of CPT11 (HT-29 tumor xenograft; combination with CPT11): enhanced anti-tumor growth activity of CPT11; half-life at 1 μM [3]: 1.47 h; IC50 (MDA-MB-231; Homo sapiens, MDA-MB-231): 10 to 50 nM; T/C value ([2]; 15 mg/kg, iv, 2 times/week): 61%; Tumor volume (X ± SD) ([2]; 15 mg/kg, iv, 2 times/week): 615 ± 10 mm^3; Tumor weight (X ± SD) ([2]; 15 mg/kg, iv, 2 times/week): 390 ± 24 mg; T/C value ([5]; 15 mg/kg): −57%; tumor growth inhibition ([5]; LY2606368 15 mg/kg, Compound 3 10, 20, 40 mg/kg): significant tumor growth inhibition in a dose-dependent manner; IC50 (HT-29; Homo sapiens, HT-29): 10 to 50 nM; AUC(0-inf) ([4]; IV, 5 mg/kg): 637 ng·h/mL; AUC(0-t) ([4]; IV, 5 mg/kg): 631 ng·h/mL; clearance ([4]; IV, 5 mg/kg): 132 mL/min/kg; MRT ([4]; IV, 5 mg/kg): 1.2 h; half-life ([4]; IV, 5 mg/kg): 1.3 h; Vd ([4]; iv, 5 mg/kg, IV, 5 mg/kg, read-out: Vd): 14.7 L/kg; Vd ([4]; iv, 5 mg/kg, IV, 5 mg/kg, read-out: Vss): 9.7 L/kg; tolerability in rats ([4]; in vivo, iv, 10 mg/kg): did not tolerated

— patent US11116767B2, “3,5-disubstituted pyrazoles useful as checkpoint kinase 1 (Chk1) inhibitors, and their preparations and applications” (PHARMAENGINE, INC., priority 2016, dated 2021)
